# Target: T1, Dopamine beta hydroxylase (Homo sapiens, UniProt P09172)
# T1 construct: 125 μl of plasma; tissue Instituto Português do Sangue Transplantação; host or cells: human plasma from healthy donors
# T1 sequence (P09172 40-617 limits assumed): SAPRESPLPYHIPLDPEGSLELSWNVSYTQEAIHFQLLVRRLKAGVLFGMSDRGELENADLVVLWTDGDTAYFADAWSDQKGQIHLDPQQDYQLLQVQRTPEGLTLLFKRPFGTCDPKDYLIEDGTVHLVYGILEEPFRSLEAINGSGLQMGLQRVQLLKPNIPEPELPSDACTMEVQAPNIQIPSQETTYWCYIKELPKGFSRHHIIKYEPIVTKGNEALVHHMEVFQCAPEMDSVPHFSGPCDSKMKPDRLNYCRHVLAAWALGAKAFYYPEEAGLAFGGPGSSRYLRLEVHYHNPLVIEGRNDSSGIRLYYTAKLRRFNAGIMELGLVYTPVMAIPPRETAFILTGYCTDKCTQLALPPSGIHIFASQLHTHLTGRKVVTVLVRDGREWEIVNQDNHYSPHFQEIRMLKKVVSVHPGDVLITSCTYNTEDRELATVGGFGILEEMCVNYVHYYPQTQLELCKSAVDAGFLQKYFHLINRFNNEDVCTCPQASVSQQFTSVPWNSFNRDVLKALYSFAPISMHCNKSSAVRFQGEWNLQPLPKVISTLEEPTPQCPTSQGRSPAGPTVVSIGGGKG
# Experiment: Dopamine beta hydroxylase activity in human plasma
# Format: biochemical
# Details: for Plasma (0.01 μM), activity in % of control: inhibitor 0.01 μM; for Plasma (0.1 μM), activity in % of control: inhibitor 0.1 μM
# Procedure, shortened: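 Octopamine production from tyramine over 45 min at 37° C, measured photometrically at 330 nm after SCX extraction and periodate oxidation against an octopamine standard curve, indicates plasma DβH activity. Compounds tested at final 10, 100 and 1000 nM in human plasma, pH 5.0 cofactor buffer, 10 min preincubation; results as % of control.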
smiles,measurement,value
"CN(C(=O)Cc1c2n(c(=S)n1C)C[C@H](c1c(F)ccc(Cl)c1F)C2)[C@@H]1CCOC1 [Example 399, 2-((S)-6-(3-chloro-2,6-difluorophenyl)-2-methyl-3-thioxo-2,5,6,7-tetrahydro-3H-pyrrolo[1,2-c]imidazol-1-yl)-N-methyl-N—((R)-tetrahydrofuran-3-yl)acetamide]","Plasma (0.01 μM), activity in % of control",40.6 % of control
same,"Plasma (0.1 μM), activity in % of control",4.0 % of control
"Cn1c(CC(=O)NC2COC2)c2n(c1=S)C[C@@]1(c3c(F)ccc(Cl)c3F)C[C@@H]21 [Example 400, 2-((5aS,6aR)-5a-(3-chloro-2,6-difluorophenyl)-2-methyl-3-thioxo-2,3,5,5a,6,6a-hexahydrocyclopropa[3,4]pyrrolo[1,2-c]imidazol-1-yl)-N-(oxetan-3-yl)acetamide]","Plasma (0.01 μM), activity in % of control",31.9 % of control
same,"Plasma (0.1 μM), activity in % of control",7.3 % of control
"O=C(Cc1[nH]c(=S)n2c1C[C@@H](c1c(F)ccc(Cl)c1F)C2)N[C@@H]1CCCOC1 [Example 401, 2-((S)-6-(3-chloro-2,6-difluorophenyl)-3-thioxo-2,5,6,7-tetrahydro-3H-pyrrolo[1,2-c]imidazol-1-yl)-N—((R)-tetrahydro-2H-pyran-3-yl)acetamide]","Plasma (0.01 μM), activity in % of control",66.5 % of control
same,"Plasma (0.1 μM), activity in % of control",35.2 % of control
"O=C(Cc1[nH]c(=S)n2c1C[C@@H](c1c(F)ccc(Br)c1F)C2)N[C@@H]1CCCOC1 [Example 402, 2-((S)-6-(3-bromo-2,6-difluorophenyl)-3-thioxo-2,5,6,7-tetrahydro-3H-pyrrolo[1,2-c]imidazol-1-yl)-N—((R)-tetrahydro-2H-pyran-3-yl)acetamide]","Plasma (0.01 μM), activity in % of control",59.6 % of control
same,"Plasma (0.1 μM), activity in % of control",20.9 % of control
"O=C(Cc1[nH]c(=S)n2c1C[C@@H](c1c(F)ccc(Cl)c1F)C2)N[C@H]1CCOC1 [Example 404, 2-((S)-6-(3-chloro-2,6-difluorophenyl)-3-thioxo-2,5,6,7-tetrahydro-3H-pyrrolo[1,2-c]imidazol-1-yl)-N—((S)-tetrahydrofuran-3-yl)acetamide]","Plasma (0.01 μM), activity in % of control",78.7 % of control
same,"Plasma (0.1 μM), activity in % of control",26.2 % of control
"CN(C(=O)Cc1c2n(c(=S)n1C)C[C@H](c1c(F)ccc(Br)c1F)C2)C1CCOCC1 [Example 405, (S)-2-(6-(3-bromo-2,6-difluorophenyl)-2-methyl-3-thioxo-2,5,6,7-tetrahydro-3H-pyrrolo[1,2-c]imidazol-1-yl)-N-methyl-N-(tetrahydro-2H-pyran-4-yl)acetamide]","Plasma (0.01 μM), activity in % of control",50.7 % of control
same,"Plasma (0.1 μM), activity in % of control",4.5 % of control
"Cn1c(CC(=O)NC2CCOCC2)c2n(c1=S)C[C@H](c1c(F)ccc(Br)c1F)C2 [Example 406, (S)-2-(6-(3-bromo-2,6-difluorophenyl)-2-methyl-3-thioxo-2,5,6,7-tetrahydro-3H-pyrrolo[1,2-c]imidazol-1-yl)-N-(tetrahydro-2H-pyran-4-yl)acetamide]","Plasma (0.01 μM), activity in % of control",28.9 % of control
same,"Plasma (0.1 μM), activity in % of control",2.8 % of control
"O=C(O)Cc1[nH]c(=S)n2c1C[C@@H](c1c(F)ccc(Cl)c1F)C2 [Example 407, (S)-2-(6-(3-chloro-2,6-difluorophenyl)-3-thioxo-2,5,6,7-tetrahydro-3H-pyrrolo[1,2-c]imidazol-1-yl)acetic acid]","Plasma (0.01 μM), activity in % of control",102.6 % of control
same,"Plasma (0.1 μM), activity in % of control",42.3 % of control
"CN(C(=O)Cc1[nH]c(=S)n2c1C[C@@H](c1c(F)ccc(Br)c1F)C2)C1COC1 [Example 408, (S)-2-(6-(3-bromo-2,6-difluorophenyl)-3-thioxo-2,5,6,7-tetrahydro-3H-pyrrolo[1,2-c]imidazol-1-yl)-N-methyl-N-(oxetan-3-yl)acetamide]","Plasma (0.01 μM), activity in % of control",77.0 % of control
same,"Plasma (0.1 μM), activity in % of control",14.7 % of control
"Cn1c(CC(=O)O)c2n(c1=S)C[C@H](c1c(F)ccc(F)c1F)C2 [Example 409, (S)-2-(2-methyl-3-thioxo-6-(2,3,6-trifluorophenyl)-2,5,6,7-tetrahydro-3H-pyrrolo[1,2-c]imidazol-1-yl)acetic Acid]","Plasma (0.01 μM), activity in % of control",112.6 % of control
same,"Plasma (0.1 μM), activity in % of control",64.4 % of control
"O=C(Cc1[nH]c(=S)n2c1C[C@@H](c1c(F)ccc(Br)c1F)C2)NC1CCOCC1 [Example 410, (S)-2-(6-(3-bromo-2,6-difluorophenyl)-3-thioxo-2,5,6,7-tetrahydro-3H-pyrrolo[1,2-c]imidazol-1-yl)-N-(tetrahydro-2H-pyran-4-yl)acetamide]","Plasma (0.01 μM), activity in % of control",62.3 % of control
same,"Plasma (0.1 μM), activity in % of control",11.1 % of control
"Cn1c(CC(=O)N2CCOCC2)c2n(c1=S)C[C@H](c1c(F)ccc(F)c1F)C2 [Example 411, (S)-2-(2-methyl-3-thioxo-6-(2,3,6-trifluorophenyl)-2,5,6,7-tetrahydro-3H-pyrrolo[1,2-c]imidazol-1-yl)-1-morpholinoethan-1-one]","Plasma (0.01 μM), activity in % of control",104.2 % of control
same,"Plasma (0.1 μM), activity in % of control",78.6 % of control
"Cn1c(CC(=O)N[C@@H]2CCOC2)c2n(c1=S)C[C@H](c1c(F)ccc(F)c1F)C2 [Example 412, 2-((S)-2-methyl-3-thioxo-6-(2,3,6-trifluorophenyl)-2,5,6,7-tetrahydro-3H-pyrrolo[1,2-c]imidazol-1-yl)-N—((R)-tetrahydrofuran-3-yl)acetamide]","Plasma (0.01 μM), activity in % of control",106.2 % of control
same,"Plasma (0.1 μM), activity in % of control",63.2 % of control
"Cn1c(CC(=O)NC2COC2)c2n(c1=S)C[C@H](c1c(F)ccc(Br)c1F)C2 [Example 413, (S)-2-(6-(3-bromo-2,6-difluorophenyl)-2-methyl-3-thioxo-2,5,6,7-tetrahydro-3H-pyrrolo[1,2-c]imidazol-1-yl)-N-(oxetan-3-yl)acetamide]","Plasma (0.01 μM), activity in % of control",42.4 % of control
same,"Plasma (0.1 μM), activity in % of control",3.1 % of control
"Cn1c(CC(=O)NC2COC2)c2n(c1=S)C[C@@H](c1c(F)ccc(F)c1F)C2 [Example 414, (R)-2-(2-methyl-3-thioxo-6-(2,3,6-trifluorophenyl)-2,5,6,7-tetrahydro-3H-pyrrolo[1,2-c]imidazol-1-yl)-N-(oxetan-3-yl)acetamide]","Plasma (0.01 μM), activity in % of control",95.4 % of control
same,"Plasma (0.1 μM), activity in % of control",49.0 % of control
"Cn1c(CC(=O)N[C@@H]2CCCOC2)c2n(c1=S)C[C@@]1(c3c(F)ccc(Cl)c3F)C[C@@H]21 [Example 415, 2-((5aS,6aR)-5a-(3-chloro-2,6-difluorophenyl)-2-methyl-3-thioxo-2,3,5,5a,6,6a-hexahydrocyclopropa[3,4]pyrrolo[1,2-c]imidazol-1-yl)-N—((R)-tetrahydro-2H-pyran-3-yl)acetamide]","Plasma (0.01 μM), activity in % of control",14.9 % of control
same,"Plasma (0.1 μM), activity in % of control",2.1 % of control
"Cn1c(CC(=O)NC2CCOCC2)c2n(c1=S)C[C@H](c1c(F)ccc(F)c1F)C2 [Example 416, (S)-2-(2-methyl-3-thioxo-6-(2,3,6-trifluorophenyl)-2,5,6,7-tetrahydro-3H-pyrrolo[1,2-c]imidazol-1-yl)-N-(tetrahydro-2H-pyran-4-yl)acetamide]","Plasma (0.01 μM), activity in % of control",75.3 % of control
same,"Plasma (0.1 μM), activity in % of control",25.4 % of control
"Cn1c(CC(=O)N[C@H]2CCOC2)c2n(c1=S)C[C@H](c1c(F)ccc(F)c1F)C2 [Example 417, 2-((S)-2-methyl-3-thioxo-6-(2,3,6-trifluorophenyl)-2,5,6,7-tetrahydro-3H-pyrrolo[1,2-c]imidazol-1-yl)-N—((S)-tetrahydrofuran-3-yl)acetamide]","Plasma (0.01 μM), activity in % of control",87.7 % of control
same,"Plasma (0.1 μM), activity in % of control",60.5 % of control
"Cn1c(CC(=O)N[C@H]2CCOC2)c2n(c1=S)C[C@@]1(c3c(F)ccc(Cl)c3F)C[C@@H]21 [Example 418, 2-((5aS,6aR)-5a-(3-chloro-2,6-difluorophenyl)-2-methyl-3-thioxo-2,3,5,5a,6,6a-hexahydrocyclopropa[3,4]pyrrolo[1,2-c]imidazol-1-yl)-N—((S)-tetrahydrofuran-3-yl)acetamide]","Plasma (0.01 μM), activity in % of control",27.7 % of control
same,"Plasma (0.1 μM), activity in % of control",3.0 % of control
"Cn1c(CC(=O)N2CCOCC2)c2n(c1=S)C[C@H](c1cc(F)cc(F)c1)C2 [Example 419, (S)-2-(6-(3,5-difluorophenyl)-2-methyl-3-thioxo-2,5,6,7-tetrahydro-3H-pyrrolo[1,2-c]imidazol-1-yl)-1-morpholinoethan-1-one]","Plasma (0.01 μM), activity in % of control",92.5 % of control
same,"Plasma (0.1 μM), activity in % of control",61.0 % of control
"CN(C(=O)Cc1[nH]c(=S)n2c1C[C@H](c1c(F)ccc(F)c1F)C2)C1COC1 [Example 420, (R)—N-methyl-N-(oxetan-3-yl)-2-(3-thioxo-6-(2,3,6-trifluorophenyl)-2,5,6,7-tetrahydro-3H-pyrrolo[1,2-c]imidazol-1-yl)acetamide]","Plasma (0.01 μM), activity in % of control",87.8 % of control
same,"Plasma (0.1 μM), activity in % of control",48.5 % of control
